Assay: pH of peptide solutions in DMSO/D5W, with succinate, and with Hiltonol
Type: physicochemical
Settings: not given

Row | Compound | pH of peptides in DMSO/D5W | pH of peptides in DMSO/D5W/5mM S. Succinate spike | pH of peptides in DMSO/D5W/5nnM Succinate and Hiltonol
1 | H-SYDSVIRELLQKPNVRVVVL-OH [CS7425] | 3.78 | 6.44 | 6.65

Assay: physchem
Settings: pH 6

Row | Compound | solubility
2 | H-PSTANYNSFSSAPMPQIPVASVTPT-OH | > 2000 µg/mL
3 | H-FVGKLQRHPVAVDVLL-OH | > 2000 µg/mL
4 | H-GSGSQMPAWRTRGAISASSTQKTPTTRL-OH | > 2000 µg/mL
5 | H-TAQFAPSPGQPPALSPSYPGHRLPLQQG-OH | > 2000 µg/mL
6 | H-GDQYKATDFVADWAGTFKMVFTPKDGSG-OH | > 2000 µg/mL
7 | H-LLTDRNTSGTTFTLLGVSDYPELQVPLFLVFLA-OH | > 2000 µg/mL
8 | H-TKRQVILLHTELERFLEYLPLRF-OH | > 2000 µg/mL
9 | H-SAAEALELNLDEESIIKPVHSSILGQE-OH | > 2000 µg/mL
10 | H-RGQIKLADFRLARLYSSEESR-OH | > 2000 µg/mL
11 | H-GLEQLESIINFEKLTEWTSS-OH | < 2000 µg/mL
12 | H-DHAPEFPAREMLLKYQKLLSQER-OH | > 2000 µg/mL
13 | H-ERLSIQNFSKLLNDNIFYMS-OH | < 2000 µg/mL
14 | H-SLRNNMFEISDRFIGIYKTYNITK-OH | > 2000 µg/mL
15 | H-LRVFIGNIAVNHAPVSLRPGLGLPPGAPPGTVP-OH | < 2000 µg/mL
16 | H-LEEVAQRSHAVRSPGSPLILEVG-OH | > 2000 µg/mL
17 | H-KKNITNLSRLVVRPDTDAVY-OH | > 2000 µg/mL
18 | H-IAMGFPQKDLKAYTGTIL-OH | > 2000 µg/mL
19 | H-SVLREDLGQLEYKYQYAYFRMGIKHPD-OH | < 2000 µg/mL
20 | H-RQRRGRLGLPGEAGLEGFEPSDALGPD-OH | > 2000 µg/mL
21 | H-EDSKYQNLLPFFVGHNMLLVSEE-OH | < 2000 µg/mL
22 | H-LPVFIGNIAVNHAPVSLRPGLGLPPGAPPGTVP-OH | > 2000 µg/mL
23 | H-ISSLFVSYFLYRVVFHFE-OH | < 2000 µg/mL
24 | H-EYWKVLDGELEVAPEYPQSTARDWL-OH | < 2000 µg/mL
25 | H-DSAVDKGHPNRSALSLTPGLRIGPSGLFLVFLA-OH | > 2000 µg/mL

Row | Compound | solubility
26 | H-AAVRPEQRPAARGSRV-OH | > 2000 µg/mL
27 | H-WCTEMKRVFGFPVHYTDVSNMS-OH | > 2000 µg/mL
28 | H-YLSHTLGAASSFMRPTVPPPQF-OH | > 2000 µg/mL
29 | H-AAAFPSQRTSWEFLQSLVSIKQEKPA-OH | < 2000 µg/mL
30 | H-RYNSTAATNEVSEVTVFSKSPVT-OH | > 2000 µg/mL
31 | H-VSWGKKVQPIDSILADWNEDIEAFEMMEKD-OH | > 2000 µg/mL
32 | H-NHSAKFLKELTLAMDELEENFRG-OH | < 2000 µg/mL
33 | H-GSVLQFMPFTTVSELMKVSAMSSPKV-OH | > 2000 µg/mL
34 | H-SRLQTRKNKKLALSSTPSNIAPSD-OH | > 2000 µg/mL
35 | H-PAHPSQGAVPPSRAAAEPHLKPSPSELQTA-OH | > 2000 µg/mL
36 | H-SDAFSGLTALPQSILLFGP-OH | > 2000 µg/mL
37 | H-VPRIAELMNKKLPSFGPYLE-OH | > 2000 µg/mL
38 | H-LMGRLQHTFKQKMTGVGASLEKR-OH | > 2000 µg/mL
39 | H-VPDINMEKKLRKIRAQTQKHLDLYARDG-OH | > 2000 µg/mL
40 | H-GRMSPSQFARVPGYVGSPLAAMNPK-OH | > 2000 µg/mL
41 | H-DGVSEEFWLVDLLPSTHYT-OH | < 2000 µg/mL
42 | H-TTVTHERKQAKVVNPPIQEVGKGARK-OH | > 2000 µg/mL
43 | H-DHVSIILLSATIPNALEFADWIG-OH | < 2000 µg/mL
44 | H-TKLKSKAPHWTNCILHEYKNLSTS-OH | > 2000 µg/mL
45 | H-VSGLEQLESIINFEKL-OH | > 2000 µg/mL
46 | H-AVGATKVPRNQDWLGVSRQL-OH | > 2000 µg/mL
47 | H-TLKEEVNELQYRQKQLELLITNLMRQVD-OH | < 2000 µg/mL
48 | H-PAPPPAVPKEHPAPPAPPPASAPTP-OH | > 2000 µg/mL
49 | H-RRGGALFASRPRFTPL-OH | > 2000 µg/mL

Row | Compound | solubility
50 | H-SHQIHSYQLYTHPLLHPWDHRD-OH | > 2000 µg/mL
51 | H-EQGPWQSEGQTWRAAGGRVPVPCPAAGPG-OH | > 2000 µg/mL
52 | H-VNGISSQPQVPFYPNLQKSQYYSTV-OH | > 2000 µg/mL
53 | H-SGARIGAPPPHATATSSSSFMPGTWGREDL-OH | > 2000 µg/mL
54 | H-ARLQSKEYPVIFKSIMRQRLISPQL-OH | > 2000 µg/mL
55 | H-AIISSLFVSYFLYR-OH | < 2000 µg/mL
56 | H-DVTYDGHPVLGSPYTVEASL-OH | < 2000 µg/mL
57 | H-SRNTGHLHPTPRFPLLRWTQEPQPLE-OH | > 2000 µg/mL
58 | H-GSYLVALGAHTGEES-OH | > 2000 µg/mL
59 | H-YLLPKTAVVLRCPALRVRKP-OH | > 2000 µg/mL
60 | H-FAKGFRESDLNSWPVAPRPLLSV-OH | > 2000 µg/mL
61 | H-AESAQRQGPNGGGEQSANEF-OH | > 2000 µg/mL
62 | H-GTKALQLHSIAGRWPRMEPWVVESMSLGVP-OH | > 2000 µg/mL
63 | H-VDKNGRRRLVYLVENPGGYVAYS-OH | > 2000 µg/mL
64 | H-KQGWTTEGIWKDVYIIKL-OH | < 2000 µg/mL
65 | H-FYSNSTVSETQWKVTVTPR-OH | > 2000 µg/mL
66 | H-SQSSTPAMLFPAPAAHRTLTYLSQ-OH | > 2000 µg/mL
67 | H-SAVSAASIPAMHINQATNGGGS-OH | < 2000 µg/mL
68 | H-DVTGPHLYSIYLHGSTDKLPYVTMGS-OH | > 2000 µg/mL
69 | H-YPEPQNKEAFVHSQMYSTDYDQI-OH | > 2000 µg/mL
70 | H-VARNYLREAVSHNASLEVAILRD-OH | < 2000 µg/mL
71 | H-ALSLTPGLRIGPSGLFLVFLAESAVDKGHPNRS-OH | > 2000 µg/mL
72 | H-SSELTAVNFPSFHVTSLKLMVSPTS-OH | > 2000 µg/mL
73 | H-KGEKNGMTFSSTKDYVNNV-OH | > 2000 µg/mL

Row | Compound | solubility
74 | H-DGAWPVLLDKFVEWYKDKQMS-OH | > 2000 µg/mL
75 | H-ALLQNVELRRNVLVSPTPLAN-OH | > 2000 µg/mL
76 | H-GTEPEPAFQDDAVNAPLEFKMAAGSSG-OH | > 2000 µg/mL
77 | H-KAHVEGDGVVEEIIRYHPFLYDRET-OH | < 2000 µg/mL
78 | H-YFDVVERSTEKIVDTSLIFNI-OH | < 2000 µg/mL
79 | H-PGGDSGELITDAHELGVAHPPGY-OH | > 2000 µg/mL
80 | H-LPDEVSGLEQLESIINFEKL-OH | > 2000 µg/mL
81 | H-PENDDLFMMPRIVDVTSLATEGG-OH | > 2000 µg/mL
82 | H-DHAPEFPAREMLLKYQKLLCQERYFL-OH | < 2000 µg/mL
83 | H-KLRTIPLSDNTIFRRICTIAKHLE-OH | > 2000 µg/mL
84 | H-NNQTNSPTTPNFGSSGSFNLPNSGD-OH | > 2000 µg/mL
85 | H-PLMQTELHQLVPEADPEEMA-OH | > 2000 µg/mL
86 | H-SHNELADSGIPENSFNVSSLVE-OH | > 2000 µg/mL
87 | H-TFPKKIQMLARDFLDEY-OH | > 2000 µg/mL
88 | H-HKSIGQPKLSTHPFLCPKPQKMNTSLGQHLTL-OH | > 2000 µg/mL
89 | H-SPIKLVQKVASKIPFPDRITEESV-OH | > 2000 µg/mL
90 | H-HRPRPFSPGKQVSSAPLFMLDLYN-OH | > 2000 µg/mL
91 | H-KLAWRGRISSSGCPSMTSPPSPMFGMTLHT-OH | > 2000 µg/mL
92 | H-TWAGHVSTALARPLGAPWAEPGSCGPGTN-OH | > 2000 µg/mL
93 | H-VDKNGRRRLVYLVENPGG-OH | > 2000 µg/mL
94 | CC(C)C[C@H](NC(=O)[C@H](C)N)C(=O)N[C@@H](CCC(=O)O)C(=O)N[C@@H](CCC(=O)O)C(=O)N[C@@H](CCCCN)C(=O)N[C@@H](CCCCN)C(=O)NCC(=O)N[C@@H](CC(N)=O)C(=O)N[C@@H](Cc1ccc(O)cc1)C(=O)N[C@H](C(=O)N[C@H](C(=O)N[C@H](C(=O)N[C@@H](CC(=O)O)C(=O)N[C@@H](Cc1c[nH]cn1)C(=O)NCC(=O)N[C@@H](CO)C(=O)N[C@@H](CS)C(=O)N[C@H](C(=O)O)C(C)C)[C@@H](C)O)C(C)C)C(C)C | > 2000 µg/mL
95 | H-KGASLDAGWGSPRWTTTRMTSASAGRSTRA-OH | > 2000 µg/mL
